# “Also recorded” adds a separate entry of the source.
# B1: IL-9: recombinant murine IL-9, TH2 associated cytokine (protein, UniProt P15247 19-144, looked up)
# Interleukin-9: QRCSTTWGIRDTNYLIENLKDDPPSKCSCSGNVTSCLCLSVPTDDCTTPCYREGLLQLTNATQKSRLLPVFHRVKRIVEVLKNITCPSFSCEKPCNQTMAGNTLSFLKSLLGTFQKTEMQRQKSRP
# System: TH2AF1
# Assay: TH2AF1 expression in lung of C57BL/6 mice after intratracheal instillation of recombinant cytokines
# Type: in vivo, mouse
# Details: recombinant cytokine instilled into trachea of C57BL/6 mice, FIG. 5
# Experimental: To confirm that the expression of IL-9 was critically related to the expression of TH2AF1 and to control for genetic background specifically, recombinant murine IL-9 was introduced into the lung of murine strain C57BL/6. Recombinant IL-9 was instilled into the trachea of anesthetized mice by addition of 50 μl of a 0.1 mg/ml IL-9 solution or vehicle alone (0.1% bovine serum albumin) daily for ten days. After ten days, the mice were euthanized and lungs extracted for either RNA expression analysis using Trizol as described by the manufacturer (Gibco-BRL) or Western blot analysis to determine levels of IL-9 instilled.
# Expression of TH2AF1 RNA was measured as described in Example 3. […] Ribosomal RNAs (rRNA, lower panel) were stained using ethidium bromide (lower panel) to control for RNA loading.
row,Molecule,induction of TH2AF1 expression in the lung (steady state mRNA)
1,interferon gamma: recombinant TH1 associated cytokine,did not induce and not
2,B1,expressed; also recorded: induced the expression
